Experimental data: patent publication US20140142128A1, “METHODS OF TREATING A DISEASE OR DISORDER ASSOCIATED WITH BRUTON'S TYROSINE KINASE” (Celgene Avilomics Research, Inc., priority 2012, published 2014)

What was measured:
[1] = test system: Btk responsive site (Tyr1217) on PLCγ2; assay: PLCγ2 phosphorylation in Ramos cells; type: cell-based; settings: human Burkitt lymphoma cell line, read-out: EC50, inhibition of phosphorylation of the Btk responsive site (Tyr1217) on PLCγ2
relapsed/refractory CLL = settings: lenalidomide 25 mg for 21 days of every 28-day cycle; cited from earlier work

SMILES | EC50 [1] | Clinical responses (CR or PR) in subjects refractory to fludarabine (relapsed/refractory CLL) | Clinical responses (CR or PR) in subjects with del (11)(q23) and/or del (17)(p13.1) adverse cytogenetics (relapsed/refractory CLL)
C=CC(=O)Nc1cccc(Nc2nc(Nc3ccc(OCCOC)cc3)ncc2F)c1 [Compound 1, N-(3-(5-fluoro-2-(4-(2-methoxyethoxy)phenylamino)pyrimidin-4-ylamino)phenyl)acrylamide] | 1 to 10 nM |  | 
Nc1cccc2c1CN(C1CCC(=O)NC1=O)C2=O (stereo not drawn) [lenalidomide, 3-(4-amino-1-oxo-1,3-dihydro-2H-isoindol-2-yl)piperidine-2,6-dione] |  | 30% | 47%
